Test results reported in ChEMBL document CHEMBL5532637, “Antimicrobial activity of natural and semi-synthetic carbazole alkaloids” (Eur J Med Chem, 2023).
In brackets after ≈: the same amount, converted by molar mass.

Key:
[1] = test system: Escherichia coli; experiment: Antibacterial activity against Escherichia coli JW5503 harboring tolC mutant assessed as inhibition of bacterial growth incubated for 16 to 20 hrs by two-fold serial dilution assay; format: functional; conditions: time 16-20 hrs
[2] = test system: Staphylococcus aureus; experiment: Antibacterial activity against Staphylococcus aureus assessed as inhibition of bacterial growth; format: functional, organism-based
[3] = test system: Staphylococcus aureus; experiment: Antibacterial activity against Staphylococcus aureus assessed as inhibition of bacterial growth by broth microdilution method; format: functional
[4] = test system: Klebsiella pneumoniae; experiment: Antibacterial activity against Klebsiella pneumoniae assessed as inhibition of bacterial growth by broth microdilution method; format: functional
[5] = test system: Escherichia coli; experiment: Antibacterial activity against Escherichia coli assessed as inhibition of bacterial growth by broth microdilution method; format: functional
[6] = test system: Pseudomonas aeruginosa; experiment: Antibacterial activity against Pseudomonas aeruginosa assessed as inhibition of bacterial growth by broth microdilution method; format: functional
[7] = test system: Staphylococcus aureus; experiment: Antibacterial activity against Staphylococcus aureus TISTR 1466 assessed as inhibition of bacterial growth by two-fold serial dilution method; format: functional
[8] = test system: Staphylococcus aureus; experiment: Antibacterial activity against methicillin-resistant Staphylococcus aureus SK1 assessed as inhibition of bacterial growth by two-fold serial dilution method; format: functional
[9] = test system: Escherichia coli; experiment: Antibacterial activity against Escherichia coli TISTR 780 assessed as inhibition of bacterial growth by two-fold serial dilution method; format: functional
[10] = test system: Salmonella typhimurium; experiment: Antibacterial activity against Salmonella typhimurium TISTR 292 assessed as inhibition of bacterial growth by two-fold serial dilution method; format: functional, Salmonella enterica subsp. enterica serovar Typhimurium; conditions: Salmonella enterica
[11] = test system: Xanthomonas oryzae; experiment: Antimicrobial activity against Xanthomonas oryzae by turbidimetric analysis; format: functional, organism-based
[12] = test system: Xanthomonas axonopodis; experiment: Antimicrobial activity against Xanthomonas axonopodis by turbidimetric analysis; format: functional, organism-based
[13] = Antimicrobial activity against Pseudomonas syringae pv. actinidiae by turbidimetric analysis; format: functional
[14] = test system: Staphylococcus aureus; experiment: Antimicrobial activity against Staphylococcus aureus ATCC 29213 assessed as inhibition of microbial growth incubated for 24 hrs by two-fold serial dilution assay; format: functional
[15] = test system: Bacillus subtilis; experiment: Antimicrobial activity against Bacillus subtilis ATCC 6633 assessed as inhibition of microbial growth incubated for 24 hrs by two-fold serial dilution assay; format: functional
[16] = test system: Priestia megaterium; experiment: Antimicrobial activity against Bacillus megaterium ATCC 9885 assessed as inhibition of microbial growth incubated for 24 hrs by two-fold serial dilution assay; format: functional
[17] = test system: Micrococcus luteus; experiment: Antimicrobial activity against Sarcina lutea assessed as inhibition of microbial growth incubated for 24 hrs by two-fold serial dilution assay; format: functional
[18] = test system: Klebsiella pneumoniae; experiment: Antimicrobial activity against Klebsiella pneumoniae ATCC 13883 assessed as inhibition of microbial growth incubated for 24 hrs by two-fold serial dilution assay; format: functional
[19] = test system: Pseudomonas aeruginosa; experiment: Antimicrobial activity against Pseudomonas aeruginosa ATCC 27953 assessed as inhibition of microbial growth incubated for 24 hrs by two-fold serial dilution assay; format: functional
[20] = test system: Escherichia coli; experiment: Antimicrobial activity against Escherichia coli ATCC 25922 assessed as inhibition of microbial growth incubated for 24 hrs by two-fold serial dilution assay; format: functional
[21] = test system: Candida albicans; experiment: Antimicrobial activity against Candida albicans NRRL Y-477 assessed as inhibition of microbial growth incubated for 48 hrs by two-fold serial dilution assay; format: functional
[22] = test system: Candida albicans; experiment: Antifungal activity against Candida albicans assessed as inhibition of fungal growth incubated for overnight by MTT based serial dilution method; format: functional
[23] = test system: Candida tropicalis; experiment: Antifungal activity against Candida tropicalis assessed as inhibition of fungal growth incubated for overnight by MTT based serial dilution method; format: functional
[24] = test system: Aspergillus fumigatus; experiment: Antifungal activity against Aspergillus fumigatus assessed as inhibition of fungal growth incubated for overnight by MTT based serial dilution method; format: functional
[25] = test system: Pasteurella multocida; experiment: Antibacterial activity against Pasteurella multocida assessed as inhibition of bacterial growth by agar well diffusion method; format: functional
[26] = test system: Schizosaccharomyces pombe; experiment: Antifungal activity against Schizosaccharomyces pombe DSM 70572 assessed as inhibition of fungal growth incubated for 24 hrs by serial dilution method; format: functional
[27] = test system: Mucor hiemalis; experiment: Antifungal activity against Mucor hiemalis DSM 2656 assessed as inhibition of fungal growth incubated for 24 hrs by serial dilution method; format: functional
[28] = test system: Rhodotorula glutinis; experiment: Antifungal activity against Rhodotorula glutinis DSM 10134 assessed as inhibition of fungal growth incubated for 24 hrs by serial dilution method; format: functional
[29] = test system: Bacillus subtilis; experiment: Antibacterial activity against Bacillus subtilis DSM 10 assessed as inhibition of bacterial growth incubated for 24 hrs by serial dilution method; format: functional
[30] = test system: Mycolicibacterium smegmatis; experiment: Antibacterial activity against Mycobacterium smegmatis DSM ATCC 700084 assessed as inhibition of bacterial growth incubated for 24 hrs by serial dilution method; format: functional
[31] = test system: Staphylococcus aureus; experiment: Antibacterial activity against Staphylococcus aureus DSM 346 assessed as inhibition of bacterial growth incubated for 24 hrs by serial dilution method; format: functional
[32] = test system: Staphylococcus epidermidis; experiment: Antibacterial activity against Staphylococcus epidermidis assessed as zone of inhibition at 25 ug/ml; format: functional; conditions: read-out: IZ
[33] = test system: Proteus vulgaris; experiment: Antibacterial activity against Proteus vulgaris assessed as zone of inhibition at 25 ug/ml; format: functional; conditions: read-out: IZ
[34] = test system: Escherichia coli; experiment: Antibacterial activity against Escherichia coli assessed as zone of inhibition at 25 ug/ml; format: functional; conditions: read-out: IZ
[35] = test system: Vibrio cholerae; experiment: Antibacterial activity against Vibrio cholerae assessed as inhibition of bacterial growth incubated for 24 hrs by broth microdilution method; format: functional
[36] = test system: Shigella flexneri; experiment: Antibacterial activity against Shigella flexneri assessed as inhibition of bacterial growth incubated for 24 hrs by broth microdilution method; format: functional
[37] = test system: Staphylococcus aureus; experiment: Antibacterial activity against Staphylococcus aureus assessed as inhibition of bacterial growth incubated for 24 hrs by broth microdilution method; format: functional

Structure (SMILES): NC1CCCc2c1[nH]c1ccc(Cl)cc21 (stereo not drawn)
- MIC [1]: 37 µg/mL (≈ 168 µM)

Structure (SMILES): COc1cc2[nH]c3c4c(c(C)cc3c2cc1OC)OC(C)(C)C=C4
- IC50 [2]: 20.9 µM

Structure (SMILES): CC(C)=CCCC1(C)C=Cc2c(c(C)cc3c2[nH]c2cc(O)ccc23)O1 (stereo not drawn)
- MIC90 [3]: 3.12 µg/mL (≈ 8.98 µM)
- MIC90 [4]: 3.12 µg/mL (≈ 8.98 µM)
- MIC90 [5]: > 100 µg/mL
- MIC90 [6]: > 100 µg/mL

Structure (SMILES): CC1(C)Oc2ccc3[nH]c4cc(O)c(C=O)cc4c3c2[C@@H](O)[C@H]1O
- MIC [7]: 64 µg/mL (≈ 196 µM)
- MIC [8]: 64 µg/mL (≈ 196 µM)
- MIC [9]: 64 µg/mL (≈ 196 µM)
- MIC [10]: 64 µg/mL (≈ 196 µM)

Structure (SMILES): O=C(CCn1c2c(c3ccccc31)CCCC2)N1C[C@H]2C[C@H](C1)c1cccc(=O)n1C2
- MIC [1]: 42.1 µg/mL (≈ 101 µM)

Structure (SMILES): OC(CNCc1cn(-c2ccc(F)cc2)nn1)Cn1c2ccccc2c2ccccc21 (stereo not drawn)
- EC50 [11]: 3.36 µg/mL (≈ 8.09 µM)
- EC50 [12]: 2.87 µg/mL (≈ 6.91 µM)
- EC50 [13]: 14.2 µg/mL (≈ 34.2 µM)

Structure (SMILES): O=C(NN1C(=O)C(Cl)=C(Cl)C1=O)c1ccc(-n2c3c(c4ccccc42)CCCC3)cc1
- MIC [14]: 25 µg/mL
- MIC [15]: 25 µg/mL
- MIC [16]: 25 µg/mL
- MIC [17]: 25 µg/mL
- MIC [18]: 25 µg/mL
- MIC [19]: 25 µg/mL
- MIC [20]: 25 µg/mL
- MIC [21]: 25 µg/mL

Structure (SMILES): O=C1COc2ccccc2N1CC(O)CN1CCN(CC(O)Cn2c3ccccc3c3ccccc32)CC1 (stereo not drawn)
- EC50 [11]: 4.95 µg/mL (≈ 9.62 µM)
- EC50 [12]: 4.71 µg/mL (≈ 9.15 µM)
- EC50 [13]: 8.5 µg/mL (≈ 16.5 µM)

Structure (SMILES): COCn1c2c(c3cccc(C)c31)Cc1cocc1C2
- MIC [22]: 7.81 µg/mL (≈ 29.2 µM)
- MIC [23]: 7.81 µg/mL (≈ 29.2 µM)
- MIC [24]: 7.81 µg/mL (≈ 29.2 µM)

Structure (SMILES): C/C(=N/Nc1ccc([N+](=O)[O-])cc1[N+](=O)[O-])C1CCCc2c1n(C)c1c([N+](=O)[O-])cc([N+](=O)[O-])cc21 (stereo not drawn)
- MIC [25]: 4.5 µg/mL (≈ 9.05 µM)

Structure (SMILES): COCn1c2c(c3cc(F)ccc31)Cc1cocc1C2
- MIC [22]: 7.81 µg/mL (≈ 28.8 µM)
- MIC [23]: 7.81 µg/mL (≈ 28.8 µM)
- MIC [24]: 7.81 µg/mL (≈ 28.8 µM)

Structure (SMILES): Clc1ccc2[nH]c3c(c2c1)CCCC31CCCn2ccnc21 (stereo not drawn)
- MIC [26]: 53.2 µM (≈ 16.6 µg/mL)
- MIC [27]: 53.2 µM (≈ 16.6 µg/mL)
- MIC [28]: 53.2 µM (≈ 16.6 µg/mL)
- MIC [29]: 53.2 µM (≈ 16.6 µg/mL)
- MIC [30]: 53.2 µM (≈ 16.6 µg/mL)
- MIC [31]: 53.2 µM (≈ 16.6 µg/mL)

Structure (SMILES): O=C(NN1C(=O)c2ccccc2C1=O)c1ccc(-n2c3c(c4ccccc42)CCCC3)cc1
- MIC [14]: 25 µg/mL
- MIC [15]: 25 µg/mL
- MIC [16]: 25 µg/mL
- MIC [17]: 25 µg/mL
- MIC [18]: 25 µg/mL
- MIC [19]: 25 µg/mL
- MIC [20]: 25 µg/mL
- MIC [21]: 25 µg/mL

Structure (SMILES): COC(=O)c1cc(O)c2[nH]c3ccc4c(c3c2c1)C=CC(C)(C)O4
- MIC [7]: 64 µg/mL (≈ 198 µM)
- MIC [8]: 64 µg/mL (≈ 198 µM)
- MIC [9]: 64 µg/mL (≈ 198 µM)
- MIC [10]: 64 µg/mL (≈ 198 µM)

Structure (SMILES): Cc1ccc2[nH]c3c(c2c1)CC/C(=C\c1ccc(Br)cc1)C3=O
- zone of inhibition at 25 µg/mL [32]: 15 mm
- zone of inhibition at 25 µg/mL [33]: 15 mm
- zone of inhibition at 25 µg/mL [34]: 15 mm

Structure (SMILES): COc1cc(C)c(CC=C(C)C)c2c1[nH]c1ccccc12
- MIC [35]: 32 µg/mL (≈ 115 µM)
- MIC [36]: 32 µg/mL (≈ 115 µM)
- MIC [37]: 32 µg/mL (≈ 115 µM)

Structure (SMILES): NCC1CCCc2c1[nH]c1ccc(Cl)cc21 (stereo not drawn)
- MIC [1]: 21.1 µg/mL (≈ 89.9 µM)

Structure (SMILES): CC(C)=CCc1c(O)ccc2[nH]c3cc(O)c(C=O)cc3c12
- MIC [7]: 64 µg/mL (≈ 217 µM)
- MIC [8]: 64 µg/mL (≈ 217 µM)
- MIC [9]: 64 µg/mL (≈ 217 µM)
- MIC [10]: 64 µg/mL (≈ 217 µM)

Structure (SMILES): CC(C)=CCC[C@@]1(C)C=Cc2c(ccc3c2[nH]c2ccc(C=O)cc23)O1
- IC50 [2]: 11.7 µM

Structure (SMILES): Brc1ccc2[nH]c3c(c2c1)CCCC31CCCn2ccnc21 (stereo not drawn)
- MIC [26]: 66.6 µM (≈ 23.7 µg/mL)
- MIC [27]: 66.6 µM (≈ 23.7 µg/mL)
- MIC [28]: 66.6 µM (≈ 23.7 µg/mL)
- MIC [29]: 66.6 µM (≈ 23.7 µg/mL)
- MIC [30]: 66.6 µM (≈ 23.7 µg/mL)
- MIC [31]: 66.6 µM (≈ 23.7 µg/mL)
